Measurements published in ChEMBL document CHEMBL1201862, “PubChem BioAssay data set” (2004).
Active and inactive are the calls of the source.

Tests used:
[1] = biological target: T1, Kappa-type opioid receptor (Homo sapiens, UniProt P41145); test: KOR agonist analogs, arrestin-GFP redistribution, SAR follow-up, imaging, image-based, set 3 (AID 488833); format: functional
[2] = biological target: Mu-type opioid receptor (Homo sapiens, UniProt P35372); test: SAR Analysis of Agonists of the MOR Receptor using an Image-Based Assay - Set 3. [Related pubchem assays (depositor defined):AID1777, AID1785, AID1786, AID1966, AID2133, AID2136, AID2284, AID2285, AID2352]; format: functional
[3] = biological target: Delta-type opioid receptor (Homo sapiens, UniProt P41143); test: SAR Analysis of Agonists of the DOR Receptor using an Image-Based Assay - Set 3. [Related pubchem assays (depositor defined):AID1777, AID1786]; format: functional
[4] = biological target: T1, Kappa-type opioid receptor; test: SAR analysis of small molecule agonists of the kappa opioid receptor via a luminescent beta-arrestin assay - Set 3. [Related pubchem assays (depositor defined):AID1777, AID1785, AID1786, AID1966, AID2133, AID2136, AID2284, AID2500]; format: functional
[5] = biological target: T2, E3 ubiquitin-protein ligase XIAP (Homo sapiens, UniProt P98170); test: SAR analysis of Antagonists of XIAP-Bir3 domain of IAP-family anti-apoptotic proteins. [Related pubchem assays (depositor defined):AID1018, AID1449, AID1513, AID1514, AID1638]
[6] = biological target: T2, E3 ubiquitin-protein ligase XIAP; test: SAR analysis of Antagonists of IAP-family anti-apoptotic proteins. [Related pubchem assays (depositor defined):AID1018, AID1449, AID1513, AID1514, AID1638]
[7] = biological target: T3, Estrogen receptor (Homo sapiens, UniProt P03372);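 also: potency for inhibiting coactivator peptide recruitment to the receptor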
T3 sequence (P03372 whole entry): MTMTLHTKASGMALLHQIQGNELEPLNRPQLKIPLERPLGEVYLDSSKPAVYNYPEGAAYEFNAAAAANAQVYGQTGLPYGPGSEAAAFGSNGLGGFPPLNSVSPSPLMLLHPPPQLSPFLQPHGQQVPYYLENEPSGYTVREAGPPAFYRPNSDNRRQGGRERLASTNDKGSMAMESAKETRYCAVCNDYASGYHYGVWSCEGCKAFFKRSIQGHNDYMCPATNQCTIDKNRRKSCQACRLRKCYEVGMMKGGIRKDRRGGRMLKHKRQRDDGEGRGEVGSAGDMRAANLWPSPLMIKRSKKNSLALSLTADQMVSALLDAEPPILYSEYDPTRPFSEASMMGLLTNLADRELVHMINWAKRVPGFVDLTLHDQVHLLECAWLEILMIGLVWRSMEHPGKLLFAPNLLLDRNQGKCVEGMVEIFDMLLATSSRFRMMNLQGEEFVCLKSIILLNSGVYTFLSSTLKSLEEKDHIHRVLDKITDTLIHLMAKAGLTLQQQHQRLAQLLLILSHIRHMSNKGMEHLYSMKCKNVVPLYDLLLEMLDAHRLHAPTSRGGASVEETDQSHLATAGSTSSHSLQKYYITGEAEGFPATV

[8] = inhibitors of intracellular T. cruzi replication, confirmation, NIH3T3 host cells, beta-gal luminescence (AID 2044); format: functional, cell-based;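 also: intracellular parasites grown in NIH/3T3 mouse fibroblasts as host cells; luminescent beta-galactosidase reporter signal from transgenic T. cruzi replicating inside host cells; inhibitors lower the luminescence signal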
[9] = growth suppression of PTEN-null colon cells, dose response, cell-based, HCT116 PTEN knockout (AID 1047); format: functional;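 also: HCT116 colon tumor cells with PTEN knocked out; cells exposed to compound for 60 hours before readout; potency for loss of cell viability measured by luminescence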
[10] = cytotoxicity toward NIH3T3 fibroblasts, dose response, counter-screen, cell-based, ATP luminescence, mouse fibroblasts (AID 2010); format: functional;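 also: cells exposed to compound for about 90 hours before reading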
[11] = growth suppression of beta-catenin-knockout colon cells, dose response, cell-based, HCT116, human colon tumor (AID 1045); format: functional;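 also: HCT116 colon tumor cells with beta catenin knocked out; cells exposed to compound for 60 hours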
[12] = biological target: T4, Coagulation factor XII (Homo sapiens, UniProt P00748); test: Factor XIIa Dose Response Confirmation from Single Well HTS. [Related pubchem assays (depositor defined):AID701]; format: functional
T4 sequence (P00748 whole entry): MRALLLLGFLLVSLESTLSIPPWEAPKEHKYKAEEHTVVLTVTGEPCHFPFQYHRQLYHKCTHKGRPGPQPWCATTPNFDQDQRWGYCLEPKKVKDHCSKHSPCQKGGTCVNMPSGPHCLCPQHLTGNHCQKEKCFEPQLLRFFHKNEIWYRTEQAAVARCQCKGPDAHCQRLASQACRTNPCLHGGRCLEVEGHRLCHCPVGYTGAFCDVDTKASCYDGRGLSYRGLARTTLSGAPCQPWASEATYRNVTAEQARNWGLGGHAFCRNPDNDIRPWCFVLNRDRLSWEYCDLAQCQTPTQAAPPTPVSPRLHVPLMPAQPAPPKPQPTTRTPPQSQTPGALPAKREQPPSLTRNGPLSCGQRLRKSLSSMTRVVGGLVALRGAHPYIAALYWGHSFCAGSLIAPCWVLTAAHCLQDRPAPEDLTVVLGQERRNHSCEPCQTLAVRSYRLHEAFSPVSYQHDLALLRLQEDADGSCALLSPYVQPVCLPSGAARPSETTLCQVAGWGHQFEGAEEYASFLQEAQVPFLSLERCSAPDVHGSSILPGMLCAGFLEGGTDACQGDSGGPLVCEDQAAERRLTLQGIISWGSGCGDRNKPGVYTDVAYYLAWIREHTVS

[13] = biological target: T5, Carboxy-terminal domain RNA polymerase II polypeptide A small phosphatase 1 (Homo sapiens, UniProt Q9GZU7); test: inhibitors of CTDSP1, concentration-response testing, biochemical assay, absorbance-based, actives from ultra-high-throughput screening (AID 540297); format: functional
T5 sequence (Q9GZU7 whole entry): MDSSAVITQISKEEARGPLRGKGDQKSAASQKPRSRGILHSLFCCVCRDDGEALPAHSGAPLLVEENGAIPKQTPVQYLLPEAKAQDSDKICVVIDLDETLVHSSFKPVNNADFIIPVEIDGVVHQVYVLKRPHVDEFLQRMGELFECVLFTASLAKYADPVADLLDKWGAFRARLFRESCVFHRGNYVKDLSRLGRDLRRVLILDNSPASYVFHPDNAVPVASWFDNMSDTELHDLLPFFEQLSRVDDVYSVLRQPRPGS

[14] = biological target: T1, Kappa-type opioid receptor; test: SAR analysis of small molecule antagonists of the kappa opioid receptor via a luminescent beta-arrestin assay - Set 4. [Related pubchem assays (depositor defined):AID1777, AID1778, AID1785, AID1786, AID1966, AID2133, AID2136, AID2285]; format: functional
[15] = biological target: T1, Kappa-type opioid receptor; test: SAR analysis of small molecule antagonists of the kappa opioid receptor via a luminescent beta-arrestin assay - Set 5. [Related pubchem assays (depositor defined):AID1778, AID1785]; format: functional
[16] = biological target: Sphingosine 1-phosphate receptor 1 (Homo sapiens, UniProt P21453); test: Fluorescence-based counterscreen assay for S1P4 agonists: Cell-based dose response high throughput screening assay to identify agonists of the Sphingosine 1-Phosphate Receptor 1 (S1P1). [Related pubchem assays (depositor defined):AID1509, AID1523, AID1801, AID463107, AID463118, AID463119, AID463122, AID463123, AID463129, AID463225, AID504400, AID504460]; format: functional
[17] = biological target: Sphingosine 1-phosphate receptor 4 (Homo sapiens, UniProt O95977); test: Fluorescence dose response cell-based high throughput screening assay for agonists of the Sphingosine 1-Phosphate Receptor 4 (S1P4). [Related pubchem assays: 1509 (Primary screen.), 1523 (Confirmation screen in triplicates.)]; format: functional
[18] = biological target: T6, Cannabinoid receptor 2 (Homo sapiens, UniProt P34972); test: SAR analysis of antagonists of the Cannabinoid Receptor 2 using an Image-Based Assay - Set 2. [Related pubchem assays (depositor defined):AID1961, AID1965]; format: functional
[19] = biological target: T7, G-protein coupled receptor 55 (Homo sapiens, UniProt Q9Y2T6); test: SAR analysis of selective Agonists of GPR55 using an Image-Based Assay - Set 2. [Related pubchem assays (depositor defined):AID1961, AID1965]; format: functional
[20] = biological target: T6, Cannabinoid receptor 2; test: SAR analysis of agonists of the Cannabinoid Receptor 2 using an Image-Based Assay - Set 2. [Related pubchem assays (depositor defined):AID1961, AID1965]; format: functional
[21] = biological target: T8, G-protein coupled receptor 35 (Homo sapiens, UniProt Q9HC97); test: SAR analysis of Agonists of the GPR35 Receptor using an Image-Based Assay - Set 3. [Related pubchem assays (depositor defined):AID1961, AID1965]; format: functional
[22] = biological target: T9, Cannabinoid receptor 1 (Homo sapiens, UniProt P21554); test: SAR analysis of antagonists of the Cannabinoid Receptor 1 using an Image-Based Assay - Set 3. [Related pubchem assays (depositor defined):AID1961, AID1965]; format: functional
[23] = biological target: T9, Cannabinoid receptor 1; test: SAR analysis of agonists of the Cannabinoid Receptor 1 using an Image-Based Assay - Set 3. [Related pubchem assays (depositor defined):AID1961, AID1965]; format: functional
[24] = biological target: T8, G-protein coupled receptor 35; test: SAR analysis of Antagonists of the GPR35 Receptor using an Image-Based Assay - Set 4. [Related pubchem assays (depositor defined):[…]]; format: functional
[25] = biological target: T7, G-protein coupled receptor 55; test: GPR55 antagonists blocking LPI-driven arrestin recruitment, primary screen, imaging, U2OS, beta-arrestin-GFP, LPI agonist (AID 2013); format: functional;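 also: antagonist potency measured as reduced agonist-driven arrestin aggregation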
[26] = biological target: T9, Cannabinoid receptor 1; test: SAR analysis of antagonists of the Cannabinoid Receptor 1 using an Image-Based Assay - Set 2. [Related pubchem assays (depositor defined):AID2013, AID2026]; format: functional
[27] = biological target: T8, G-protein coupled receptor 35; test: SAR analysis of Agonists of the GPR35 Receptor using an Image-Based Assay - Set 2. [Related pubchem assays (depositor defined):AID2013, AID2026]; format: functional
[28] = biological target: T6, Cannabinoid receptor 2; test: SAR analysis of antagonists of the Cannabinoid Receptor 2 using an Image-Based Assay. [Related pubchem assays (depositor defined):AID2013, AID2026]; format: functional
[29] = biological target: T9, Cannabinoid receptor 1; test: SAR analysis of agonists of the Cannabinoid Receptor 1 using an Image-Based Assay - Set 2. [Related pubchem assays (depositor defined):AID2013, AID2026]; format: functional
[30] = biological target: T8, G-protein coupled receptor 35; test: SAR analysis of Antagonists of the GPR35 Receptor using an Image-Based Assay - Set 3. [Related pubchem assays (depositor defined):AID2013, AID2026]; format: functional
[31] = biological target: T7, G-protein coupled receptor 55; test: GPR55 antagonist potency of analogs, SAR follow-up, imaging, U2OS, beta-arrestin-GFP, LPI agonist, set 2 (AID 2820); format: functional
[32] = biological target: T6, Cannabinoid receptor 2; test: SAR analysis of agonists of the Cannabinoid Receptor 2 using an Image-Based Assay. [Related pubchem assays (depositor defined):AID2013, AID2026]; format: functional
[33] = Luminescence Cell-Based Dose Retest to Confirm Inhibitors of Cancer Stem Cells. [Related pubchem assays (depositor defined):AID2717, AID2721]; format: functional; conditions: Homo sapiens
[34] = biological target: DNA damage-inducible transcript 3 protein (Mus musculus, UniProt P35639); format: functional, Cricetulus griseus
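For AC50 in this document: cells exposed to compound for roughly 70 hours or longer before luminescence read.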

T7 sequence (Q9Y2T6 whole entry): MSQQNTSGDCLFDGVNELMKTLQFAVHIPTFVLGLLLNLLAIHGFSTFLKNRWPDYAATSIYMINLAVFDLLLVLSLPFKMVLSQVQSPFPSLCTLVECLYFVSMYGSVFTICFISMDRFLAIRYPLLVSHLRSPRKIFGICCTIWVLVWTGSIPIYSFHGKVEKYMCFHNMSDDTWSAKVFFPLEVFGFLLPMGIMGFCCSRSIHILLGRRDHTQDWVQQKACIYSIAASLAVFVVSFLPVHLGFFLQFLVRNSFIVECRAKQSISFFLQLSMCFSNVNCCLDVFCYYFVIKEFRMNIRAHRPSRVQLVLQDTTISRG
T9 sequence (P21554 whole entry): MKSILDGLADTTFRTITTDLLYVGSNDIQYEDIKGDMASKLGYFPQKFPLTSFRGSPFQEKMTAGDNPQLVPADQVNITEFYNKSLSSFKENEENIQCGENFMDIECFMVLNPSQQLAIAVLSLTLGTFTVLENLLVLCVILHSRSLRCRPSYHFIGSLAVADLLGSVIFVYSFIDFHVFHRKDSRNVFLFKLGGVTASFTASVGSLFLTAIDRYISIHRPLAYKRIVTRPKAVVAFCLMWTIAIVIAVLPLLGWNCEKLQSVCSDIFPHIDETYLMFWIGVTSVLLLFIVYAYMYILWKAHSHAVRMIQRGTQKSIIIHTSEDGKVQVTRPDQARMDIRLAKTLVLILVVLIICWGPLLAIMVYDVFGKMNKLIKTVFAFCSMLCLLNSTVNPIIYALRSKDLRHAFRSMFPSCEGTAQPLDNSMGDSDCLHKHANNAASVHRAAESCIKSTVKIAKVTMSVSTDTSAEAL
T1 sequence (P41145 whole entry): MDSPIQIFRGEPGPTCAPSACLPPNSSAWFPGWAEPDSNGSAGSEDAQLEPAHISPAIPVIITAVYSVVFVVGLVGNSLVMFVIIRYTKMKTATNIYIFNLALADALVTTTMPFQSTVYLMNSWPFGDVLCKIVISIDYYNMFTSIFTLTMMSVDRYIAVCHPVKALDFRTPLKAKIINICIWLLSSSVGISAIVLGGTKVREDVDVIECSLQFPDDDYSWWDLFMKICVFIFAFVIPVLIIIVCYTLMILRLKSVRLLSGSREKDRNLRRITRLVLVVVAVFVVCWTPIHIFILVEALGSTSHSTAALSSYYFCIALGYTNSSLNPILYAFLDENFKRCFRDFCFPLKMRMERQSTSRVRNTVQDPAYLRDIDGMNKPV
T6 sequence (P34972 whole entry): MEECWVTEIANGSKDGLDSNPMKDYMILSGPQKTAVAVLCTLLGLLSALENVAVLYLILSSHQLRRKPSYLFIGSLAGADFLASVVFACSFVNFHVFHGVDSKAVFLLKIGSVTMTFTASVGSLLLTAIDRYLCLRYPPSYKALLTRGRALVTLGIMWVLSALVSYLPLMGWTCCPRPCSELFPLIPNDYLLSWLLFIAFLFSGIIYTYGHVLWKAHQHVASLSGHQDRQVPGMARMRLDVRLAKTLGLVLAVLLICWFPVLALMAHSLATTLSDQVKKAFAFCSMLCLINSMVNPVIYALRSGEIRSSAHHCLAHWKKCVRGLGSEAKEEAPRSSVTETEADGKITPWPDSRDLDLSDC
T8 sequence (Q9HC97 whole entry): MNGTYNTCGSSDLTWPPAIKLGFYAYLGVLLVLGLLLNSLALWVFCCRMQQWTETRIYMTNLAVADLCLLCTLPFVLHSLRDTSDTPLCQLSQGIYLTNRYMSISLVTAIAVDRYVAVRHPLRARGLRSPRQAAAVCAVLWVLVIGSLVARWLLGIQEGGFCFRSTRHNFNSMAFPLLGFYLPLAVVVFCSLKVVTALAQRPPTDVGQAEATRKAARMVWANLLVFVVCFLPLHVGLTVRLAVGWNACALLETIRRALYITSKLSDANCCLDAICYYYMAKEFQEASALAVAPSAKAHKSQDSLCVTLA
T2 sequence (P98170 whole entry, the tested form may be a part): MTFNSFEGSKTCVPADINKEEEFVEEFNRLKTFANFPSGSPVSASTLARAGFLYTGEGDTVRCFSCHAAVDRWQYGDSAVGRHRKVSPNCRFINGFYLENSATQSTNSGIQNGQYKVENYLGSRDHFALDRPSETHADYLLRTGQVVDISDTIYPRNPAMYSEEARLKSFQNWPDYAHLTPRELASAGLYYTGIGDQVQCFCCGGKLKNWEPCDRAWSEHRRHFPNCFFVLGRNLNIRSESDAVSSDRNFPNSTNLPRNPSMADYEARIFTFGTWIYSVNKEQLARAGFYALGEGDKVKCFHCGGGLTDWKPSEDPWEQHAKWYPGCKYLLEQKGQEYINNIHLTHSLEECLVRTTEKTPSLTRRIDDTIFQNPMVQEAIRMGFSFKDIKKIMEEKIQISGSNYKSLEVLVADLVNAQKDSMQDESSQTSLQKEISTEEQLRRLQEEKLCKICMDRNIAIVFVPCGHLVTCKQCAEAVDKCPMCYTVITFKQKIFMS
Chain of Mu-type opioid receptor (P35372 whole entry): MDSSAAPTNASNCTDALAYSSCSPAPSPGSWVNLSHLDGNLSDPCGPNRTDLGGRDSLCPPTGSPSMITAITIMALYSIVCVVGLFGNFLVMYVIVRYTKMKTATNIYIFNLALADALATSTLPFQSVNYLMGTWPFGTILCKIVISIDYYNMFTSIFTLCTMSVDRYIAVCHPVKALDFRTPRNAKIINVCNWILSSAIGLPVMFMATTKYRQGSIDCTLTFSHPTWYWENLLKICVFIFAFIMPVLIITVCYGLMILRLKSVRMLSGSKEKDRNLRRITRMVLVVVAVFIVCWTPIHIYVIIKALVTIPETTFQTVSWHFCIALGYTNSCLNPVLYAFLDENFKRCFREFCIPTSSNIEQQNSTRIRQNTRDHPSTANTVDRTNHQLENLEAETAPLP
Chain of Sphingosine 1-phosphate receptor 1 (P21453 whole entry): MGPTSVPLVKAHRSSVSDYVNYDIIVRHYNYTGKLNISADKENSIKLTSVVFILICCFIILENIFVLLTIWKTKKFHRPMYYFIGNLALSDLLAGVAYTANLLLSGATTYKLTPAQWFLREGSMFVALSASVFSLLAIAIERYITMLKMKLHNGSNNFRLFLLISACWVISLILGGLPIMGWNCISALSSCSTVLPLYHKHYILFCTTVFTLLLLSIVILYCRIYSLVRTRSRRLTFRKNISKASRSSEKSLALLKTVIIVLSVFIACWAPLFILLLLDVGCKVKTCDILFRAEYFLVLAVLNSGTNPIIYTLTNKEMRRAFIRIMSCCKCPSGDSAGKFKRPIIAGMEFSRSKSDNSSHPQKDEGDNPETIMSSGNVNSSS
Chain of DNA damage-inducible transcript 3 protein (P35639 whole entry): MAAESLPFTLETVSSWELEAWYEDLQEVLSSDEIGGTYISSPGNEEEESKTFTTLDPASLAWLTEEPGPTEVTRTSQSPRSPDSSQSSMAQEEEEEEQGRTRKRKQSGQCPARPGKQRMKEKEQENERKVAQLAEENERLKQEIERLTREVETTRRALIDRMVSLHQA
Chain of Sphingosine 1-phosphate receptor 4 (O95977 whole entry): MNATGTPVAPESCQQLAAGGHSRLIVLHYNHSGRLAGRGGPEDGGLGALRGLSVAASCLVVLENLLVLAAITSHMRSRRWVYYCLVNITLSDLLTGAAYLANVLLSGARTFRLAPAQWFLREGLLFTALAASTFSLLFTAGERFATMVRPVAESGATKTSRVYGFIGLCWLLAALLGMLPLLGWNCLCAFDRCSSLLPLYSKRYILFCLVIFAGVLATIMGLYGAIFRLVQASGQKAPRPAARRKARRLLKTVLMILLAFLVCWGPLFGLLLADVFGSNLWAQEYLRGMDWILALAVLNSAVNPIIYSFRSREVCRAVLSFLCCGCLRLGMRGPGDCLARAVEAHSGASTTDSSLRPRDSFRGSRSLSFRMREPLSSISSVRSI
Chain of Delta-type opioid receptor (P41143 whole entry): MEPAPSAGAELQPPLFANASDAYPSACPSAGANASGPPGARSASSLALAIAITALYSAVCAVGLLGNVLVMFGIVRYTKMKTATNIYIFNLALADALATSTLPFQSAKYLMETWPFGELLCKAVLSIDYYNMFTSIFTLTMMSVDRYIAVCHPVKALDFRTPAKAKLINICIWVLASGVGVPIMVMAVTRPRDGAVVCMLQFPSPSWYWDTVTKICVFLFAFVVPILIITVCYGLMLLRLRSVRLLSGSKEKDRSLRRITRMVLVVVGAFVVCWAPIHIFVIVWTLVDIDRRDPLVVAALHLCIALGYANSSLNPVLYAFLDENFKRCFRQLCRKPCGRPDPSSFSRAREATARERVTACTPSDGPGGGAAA

Fc1ccc(CSc2nnc(-c3ccccn3)n2Cc2cccs2)c(F)c1F
EC50 [1]: 1.73 µM (active) | EC50 [2]: > 32 µM (inactive) | EC50 [3]: > 32 µM (inactive) | EC50 [4]: 3.04 µM (active)

CN[C@@H](C)C(=O)N[C@H](C(=O)N1CCC[C@H]1C(=O)Nc1ccc2ncccc2c1)C(C)C
IC50 [5]: 94.9 µM (active) | IC50 [6]: 11.4 µM (active)

Cc1ccc2[nH]c(/C(C#N)=C\c3ccc(N4CCCCC4)c([N+](=O)[O-])c3)nc2c1
IC50 [7]: 4.23 µM (active) | EC50 [8]: 2 µM (active) | EC50 [9]: 19.4 µM (active) | EC50 [10]: > 60 µM (inconclusive) | EC50 [11]: 22 µM (active) | IC50 [12]: 1.02 µM (active) | IC50 [13]: 2.45 µM (active)

Cc1ccc(S(=O)(=O)NCc2cccc(C(=O)NCCN(Cc3ccccc3)C(C)C)c2)cc1
IC50 [14]: > 20 µM (inactive) | IC50 [15]: > 20 µM (inactive)

CC(C)c1cc(C(=O)OCC(=O)NC(=O)NCc2ccco2)c(O)c(C(C)C)c1
EC50 [16]: > 49.8 µM (inactive) | EC50 [17]: > 49.8 µM (not active)

CCN(CC)S(=O)(=O)c1ccc(N2CCC(C)CC2)c(C(=O)N2CCN(c3ccccc3)CC2)c1
IC50 [18]: > 32 µM (inactive) | EC50 [19]: > 32 µM (inactive) | EC50 [20]: > 32 µM (inactive) | EC50 [21]: > 32 µM (inactive) | IC50 [22]: > 32 µM (inactive) | EC50 [23]: > 32 µM (inactive) | IC50 [24]: > 32 µM (inactive)

Cc1cccc(-c2cc(C(=O)Nc3sc(C)c(C)c3C(N)=O)c3ccccc3n2)c1
IC50 [25]: 0.869 µM (active) | IC50 [26]: 24.1 µM (inactive) | EC50 [27]: > 32 µM (inactive) | IC50 [28]: > 32 µM (inactive) | EC50 [29]: > 32 µM (inactive) | IC50 [30]: > 32 µM (inactive) | IC50 [31]: 1.44 µM (active) | EC50 [32]: > 32 µM (inactive)

Cc1ccc(COc2ccc(Br)cc2/C=N/O)cc1
AC50 [33]: 6.11 µM (active) | Absolute IC50 (CHOP) [34]: 10 µM
